The record followed here is patent US20100196462A1, “Method for Manufacturing a Pharmaceutical Form of Oseltamivir Phosphate” (priority 2006, published 2010).

This data set in a line: Density of the oseltamivir phosphate active ingredient before densification (pharmacotechnical tests). The following applies: active ingredient as received, without densification. Format: physicochemical.

On to `CCOC(=O)C1=C[C@@H](OC(CC)CC)[C@H](NC(C)=O)[C@@H](N)C1` [oseltamivir phosphate], for which the density entry is given as “approximately 0.1 g/cm^3”.
